Earlier results on two molecules are cited in patent US20140271704A1, “METHODS OF PRODUCING NUTRITIONAL SUPPLEMENTS USING MUSHROOMS FROM THE SPECIES Poria cocos OR Flammulina velutipes” (JARROW FORMULAS, INC., priority 2013, published 2014).

One data set concerns homocysteine. Particulars: human; compared with racemic mixtures of equal amounts of L- and D-isomer.
The conditions of data set [1]: oral, animal.

The structures appear in SMILES notation.

In the case of `CN1c2c(nc(N)[nH]c2=O)NCC1CNc1ccc(C(=O)N[C@@H](CCC(=O)O)C(=O)O)cc1` (single isomer, unassigned) [L-isomer of 5-MTHF, 5-methyltetrahydrofolate], the “reduction of homocysteine versus racemic mixture” value in the data set with homocysteine is on record as “superior to racemic mixtures”.

With `CN1c2c(nc(N)[nH]c2=O)NCC1CNc1ccc(C(=O)N[C@@H](CCC(=O)O)C(=O)O)cc1` (some centres unmarked) [5-MTHF, 5-methyltetrahydrofolate], the “absorption from the intestinal tract” value in data set [1] is listed as “readily absorbed from the intestinal tract without degradation”.
